Test results published in US20240342119A1, “COMPOSITION FOR TREATING HY[…] AND KELOIDS […] THI[…] AS ACTIVE INGREDIENT” (CEL[…]., priority 2021, published 2024).

Test system: hypertrophic scars in rabbit ears
Assay: rabbit ear hypertrophic scar model
Assay type: in vivo, New Zealand white rabbits
Conditions: 10% compound; for epidermal thickness of hypertrophic scar / scar elevation index (SEI) / collagen density (ratio of blue-stained area to total area): 0.5 mL applied daily for 14 days, compared to control and solvent-treated group; for epidermal thickness of hypertrophic scar: H&E, FIG. 9; for scar elevation index (SEI): FIG. 10; for collagen density (ratio of blue-stained area to total area): FIG. 11; for visual evaluation score of hypertrophic scar (dermatoscope, score 0-3 of Table 1): 0.5 mL applied daily, day 14, compared to control and solvent-treated group, FIG. 8
Description: Eight female New Zealand white rabbits (2.6 to 3 kg) were anesthetized, and wounds were formed by removing the epidermis, dermis, and perichondrium of the ear skin of the rabbits using an 8 mm biopsy punch. Three wounds were formed in an ear area of each rabbit. The rabbit's surgical site was sterilized, and the formation of hypertrophic scars was induced through natural healing for 3 weeks.
After 3-week natural healing, the complete epithelialization and hypertrophic scar formation in scar areas were confirmed, and treatment was started for each test group. The test groups were classified into a normal group (normal tissue), a control (untreated scar/hypertrophic scar), test group 1 (solve application), test group 2 (CBM-N1 10%), test group 3 (CBM-N3 10%), test group 4 (CBM-N 10%), and test group 5 (CBM-N 10%).
Each test group was treated by applying 0.5 mL of drug daily for 2 weeks (14 days), and then a tissue autopsy was performed. The biopsied tissue was stored in a 10% formalin solution to form a tissue slide. The effectiveness of hypertrophic scar treatment was confirmed through dermatoscopy and histological evaluation.
The skin tissue areas of the control and test groups were observed using a dermatoscope on the start day and end day (Day 14 of treatment) of treatment, and depending on the degree of hypertrophic scar formation, scores were given for visual evaluation as shown in Table 1 below.
A paraffin block of the fixed ear tissue of a rabbit was prepared, and sliced to a thickness of 3 μm, thereby preparing a tissue slide. Following hydration, staining was performed using hematoxylin and eosin solutions. The stained tissue slides were photographed using a 200× microscope, and epithelial thicknesses were measured using ZEISS ZEN Microscope Software.
The fixed ear tissue of a rabbit was stained with a hematoxylin or eosin solution in the same manner as in the epidermal thickness analysis method, and the stained tissue slide was photographed at 50× magnification. Using ZEISS ZEN Microscope Software, the length from the epidermis to the cartilage was measured for the scar area and normal area, and the scar evaluation index (SEI) was calculated from the results. Here, the SEI is the value calculated by dividing ‘the length from the epidermis to the cartilage at the thickest point in the scar area’ by ‘the length from the epidermis to the cartilage in the normal skin area.’
A paraffin block of the fixed ear tissue of a rabbit was prepared, and sliced to a thickness of 3 μm, thereby preparing a tissue slide. Following hydration, staining was performed using Biebrich Scarlet-Acid Fuchsin solution for 5 minutes, and washing was performed and then staining was performed again with phosphotungstic acid/phosphomolybdic acid for 5 minutes.
Subsequently, staining was performed with aniline blue and an acetic acid solution, and the stained tissue slides were photographed at 400× magnification. In the photographs that were taken, the ratio of the blue-stained area, that is, the area occupied by collagen, to the total area was analyzed using Image J (The National Institutes of Health, USA).

NC(=O)C[S+]([O-])C(c1ccccc1)c1ccccc1 (stereo not shown) [CBM-N1, 2-(benzhydrylsulfinyl)acetamide, reference compound]
epidermal thickness of hypertrophic scar: thin epidermal thicknesses | scar elevation index (SEI): lower SEI values | collagen density (ratio of blue-stained area to total area): lower collagen densities | visual evaluation score of hypertrophic scar (dermatoscope, score 0-3 of Table 1): much lower

O=C(CSC(c1ccccc1)c1ccccc1)Nc1ccccc1 [CBM-N3, 2-(benzhydrylthio)-N-phenylacetamide]
epidermal thickness of hypertrophic scar: thin epidermal thicknesses | scar elevation index (SEI): lower SEI values | collagen density (ratio of blue-stained area to total area): lower collagen densities | visual evaluation score of hypertrophic scar (dermatoscope, score 0-3 of Table 1): much lower

NC(=O)C[S+]([O-])C(c1ccc(F)cc1)c1ccc(F)cc1 (stereo not shown) [CBM-N9, 2-[bis(4-fluorophenyl)methanesulfinyl]acetamide]
epidermal thickness of hypertrophic scar: thin epidermal thicknesses | scar elevation index (SEI): lower SEI values | collagen density (ratio of blue-stained area to total area): lower collagen densities | visual evaluation score of hypertrophic scar (dermatoscope, score 0-3 of Table 1): much lower

O=C(C[S+]([O-])C(c1ccccc1)c1ccccc1)NCC1CCCO1 (stereo not shown) [CBM-N5, 2-(benzhydrylsulfinyl)-N-[(tetrahydrofuran-2-yl)methyl]acetamide]
epidermal thickness of hypertrophic scar: thin epidermal thicknesses | scar elevation index (SEI): lower SEI values | collagen density (ratio of blue-stained area to total area): lower collagen densities | visual evaluation score of hypertrophic scar (dermatoscope, score 0-3 of Table 1): much lower
